Data reported in ChEMBL document CHEMBL3991601, “The target landscape of clinical kinase drugs” (Science, 2017).
Activity calls are given as the source filed them.

Assays:
[1] = target: Serine/threonine-protein kinase PAK 6 (Homo sapiens, UniProt Q9NQU5)
[2] = target: Dual specificity testis-specific protein kinase 2 (Homo sapiens, UniProt Q96S53)
[3] = target: T1, Protein kinase C zeta type (Homo sapiens, UniProt Q05513)
T1 sequence (Q05513 whole entry): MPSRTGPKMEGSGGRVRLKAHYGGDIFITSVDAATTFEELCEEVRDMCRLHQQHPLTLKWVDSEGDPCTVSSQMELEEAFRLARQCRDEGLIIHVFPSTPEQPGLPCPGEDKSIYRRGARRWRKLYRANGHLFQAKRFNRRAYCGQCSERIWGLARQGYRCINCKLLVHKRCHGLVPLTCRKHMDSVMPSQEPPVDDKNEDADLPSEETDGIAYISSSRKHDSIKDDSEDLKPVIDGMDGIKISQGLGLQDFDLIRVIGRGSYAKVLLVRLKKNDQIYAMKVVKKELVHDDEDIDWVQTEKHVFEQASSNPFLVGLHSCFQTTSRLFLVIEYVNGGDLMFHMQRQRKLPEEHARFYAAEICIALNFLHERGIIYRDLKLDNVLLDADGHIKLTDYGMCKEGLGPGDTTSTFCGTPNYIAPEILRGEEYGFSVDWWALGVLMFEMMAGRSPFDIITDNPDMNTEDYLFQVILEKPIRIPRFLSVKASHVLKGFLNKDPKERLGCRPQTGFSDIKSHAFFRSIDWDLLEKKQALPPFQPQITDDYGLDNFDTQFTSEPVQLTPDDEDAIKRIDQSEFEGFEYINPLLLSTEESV

[4] = target: Myosin-10 (Homo sapiens, UniProt P35580)
Sequence of Myosin-10 (P35580 whole entry): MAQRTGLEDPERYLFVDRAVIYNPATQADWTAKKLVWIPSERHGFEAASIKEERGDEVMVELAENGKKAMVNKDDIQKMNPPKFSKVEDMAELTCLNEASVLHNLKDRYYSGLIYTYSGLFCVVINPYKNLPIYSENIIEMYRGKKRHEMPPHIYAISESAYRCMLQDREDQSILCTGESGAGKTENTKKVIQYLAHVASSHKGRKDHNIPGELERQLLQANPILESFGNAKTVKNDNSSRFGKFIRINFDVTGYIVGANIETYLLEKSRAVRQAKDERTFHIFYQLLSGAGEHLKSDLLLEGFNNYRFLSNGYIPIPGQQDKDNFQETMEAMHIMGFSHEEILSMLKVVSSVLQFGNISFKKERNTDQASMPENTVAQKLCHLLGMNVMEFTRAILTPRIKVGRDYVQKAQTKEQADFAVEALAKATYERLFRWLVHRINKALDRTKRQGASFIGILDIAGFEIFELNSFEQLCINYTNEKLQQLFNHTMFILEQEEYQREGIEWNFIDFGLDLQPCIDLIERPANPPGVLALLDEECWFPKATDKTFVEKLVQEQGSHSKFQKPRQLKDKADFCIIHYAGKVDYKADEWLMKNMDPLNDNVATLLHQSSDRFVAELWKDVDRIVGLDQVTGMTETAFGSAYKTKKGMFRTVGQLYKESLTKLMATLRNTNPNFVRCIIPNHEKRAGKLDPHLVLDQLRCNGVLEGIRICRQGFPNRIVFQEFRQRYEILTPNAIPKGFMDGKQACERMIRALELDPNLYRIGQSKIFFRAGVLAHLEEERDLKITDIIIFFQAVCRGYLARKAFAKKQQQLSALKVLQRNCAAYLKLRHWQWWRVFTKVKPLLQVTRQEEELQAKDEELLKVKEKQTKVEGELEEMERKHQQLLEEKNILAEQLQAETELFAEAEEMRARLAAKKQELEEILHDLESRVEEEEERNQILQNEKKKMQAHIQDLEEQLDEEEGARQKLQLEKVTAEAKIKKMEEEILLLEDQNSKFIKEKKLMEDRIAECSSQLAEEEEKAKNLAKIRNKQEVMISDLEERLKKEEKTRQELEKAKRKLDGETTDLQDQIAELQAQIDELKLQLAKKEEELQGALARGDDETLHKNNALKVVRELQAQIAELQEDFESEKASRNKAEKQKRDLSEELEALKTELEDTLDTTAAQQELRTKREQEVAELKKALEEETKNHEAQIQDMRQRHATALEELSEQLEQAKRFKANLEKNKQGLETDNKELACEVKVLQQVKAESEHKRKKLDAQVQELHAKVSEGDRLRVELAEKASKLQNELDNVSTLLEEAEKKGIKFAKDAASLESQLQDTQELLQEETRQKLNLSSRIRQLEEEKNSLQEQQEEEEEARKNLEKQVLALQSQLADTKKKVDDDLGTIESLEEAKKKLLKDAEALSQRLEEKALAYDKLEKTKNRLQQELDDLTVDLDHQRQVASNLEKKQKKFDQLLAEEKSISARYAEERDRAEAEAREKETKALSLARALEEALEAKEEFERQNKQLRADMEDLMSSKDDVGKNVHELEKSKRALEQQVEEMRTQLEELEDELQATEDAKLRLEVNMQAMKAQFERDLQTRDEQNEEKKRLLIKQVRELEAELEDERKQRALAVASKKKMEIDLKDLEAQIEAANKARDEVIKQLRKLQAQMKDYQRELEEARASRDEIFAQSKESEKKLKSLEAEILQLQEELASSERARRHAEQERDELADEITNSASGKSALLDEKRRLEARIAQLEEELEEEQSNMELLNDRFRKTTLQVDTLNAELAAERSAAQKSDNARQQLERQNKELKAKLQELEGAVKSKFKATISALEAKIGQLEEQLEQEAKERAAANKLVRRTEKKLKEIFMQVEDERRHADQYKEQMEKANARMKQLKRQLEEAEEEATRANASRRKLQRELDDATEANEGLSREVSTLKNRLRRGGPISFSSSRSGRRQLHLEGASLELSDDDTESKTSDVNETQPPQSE

[5] = target: T2, MAP/microtubule affinity-regulating kinase 4 (Homo sapiens, UniProt Q96L34)
T2 sequence (Q96L34 whole entry): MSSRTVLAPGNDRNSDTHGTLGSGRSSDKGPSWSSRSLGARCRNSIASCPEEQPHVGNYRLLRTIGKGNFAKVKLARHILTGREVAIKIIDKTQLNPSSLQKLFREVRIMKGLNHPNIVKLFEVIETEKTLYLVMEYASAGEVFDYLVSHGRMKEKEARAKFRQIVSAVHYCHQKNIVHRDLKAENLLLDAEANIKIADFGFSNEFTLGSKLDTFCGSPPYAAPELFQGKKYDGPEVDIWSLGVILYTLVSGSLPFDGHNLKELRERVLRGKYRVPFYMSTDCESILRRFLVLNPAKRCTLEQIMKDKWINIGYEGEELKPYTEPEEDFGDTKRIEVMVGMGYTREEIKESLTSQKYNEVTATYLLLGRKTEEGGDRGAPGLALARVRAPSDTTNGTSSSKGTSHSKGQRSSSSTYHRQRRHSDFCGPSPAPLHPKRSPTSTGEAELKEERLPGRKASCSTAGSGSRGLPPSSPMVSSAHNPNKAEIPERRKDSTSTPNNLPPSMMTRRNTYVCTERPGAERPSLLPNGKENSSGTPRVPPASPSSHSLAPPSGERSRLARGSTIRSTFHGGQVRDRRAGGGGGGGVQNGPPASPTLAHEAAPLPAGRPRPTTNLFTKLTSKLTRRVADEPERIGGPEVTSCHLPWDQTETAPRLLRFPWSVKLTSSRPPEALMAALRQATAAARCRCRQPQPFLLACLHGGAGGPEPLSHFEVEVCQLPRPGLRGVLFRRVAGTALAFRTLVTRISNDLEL

[6] = target: Serine/threonine-protein kinase N3 (Homo sapiens, UniProt Q6P5Z2)
Sequence of Serine/threonine-protein kinase N3 (Q6P5Z2 whole entry): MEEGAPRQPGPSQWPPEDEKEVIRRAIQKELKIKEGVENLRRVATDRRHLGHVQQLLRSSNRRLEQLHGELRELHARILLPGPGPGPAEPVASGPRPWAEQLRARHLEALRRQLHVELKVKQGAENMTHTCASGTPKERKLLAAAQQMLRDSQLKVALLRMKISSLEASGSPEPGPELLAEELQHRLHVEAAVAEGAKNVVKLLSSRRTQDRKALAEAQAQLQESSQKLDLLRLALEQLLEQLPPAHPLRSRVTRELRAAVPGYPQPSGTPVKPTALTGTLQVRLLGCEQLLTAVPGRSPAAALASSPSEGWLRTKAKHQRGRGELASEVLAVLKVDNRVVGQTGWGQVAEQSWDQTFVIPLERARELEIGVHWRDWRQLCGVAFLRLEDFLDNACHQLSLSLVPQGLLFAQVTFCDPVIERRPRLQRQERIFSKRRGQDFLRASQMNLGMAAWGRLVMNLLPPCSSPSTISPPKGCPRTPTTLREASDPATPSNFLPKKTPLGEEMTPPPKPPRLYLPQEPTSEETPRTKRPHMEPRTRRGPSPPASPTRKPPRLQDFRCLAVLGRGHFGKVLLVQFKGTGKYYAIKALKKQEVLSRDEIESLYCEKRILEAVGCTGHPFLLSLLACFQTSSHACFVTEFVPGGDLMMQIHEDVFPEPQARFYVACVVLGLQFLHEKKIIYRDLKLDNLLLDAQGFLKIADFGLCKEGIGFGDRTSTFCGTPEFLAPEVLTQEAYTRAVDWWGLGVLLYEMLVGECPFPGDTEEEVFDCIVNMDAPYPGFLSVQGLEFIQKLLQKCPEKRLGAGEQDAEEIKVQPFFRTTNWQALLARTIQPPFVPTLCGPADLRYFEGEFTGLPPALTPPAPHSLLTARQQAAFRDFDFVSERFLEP

[7] = target: T3, Dual specificity protein kinase TTK (Homo sapiens, UniProt P33981)
T3 sequence (P33981 whole entry): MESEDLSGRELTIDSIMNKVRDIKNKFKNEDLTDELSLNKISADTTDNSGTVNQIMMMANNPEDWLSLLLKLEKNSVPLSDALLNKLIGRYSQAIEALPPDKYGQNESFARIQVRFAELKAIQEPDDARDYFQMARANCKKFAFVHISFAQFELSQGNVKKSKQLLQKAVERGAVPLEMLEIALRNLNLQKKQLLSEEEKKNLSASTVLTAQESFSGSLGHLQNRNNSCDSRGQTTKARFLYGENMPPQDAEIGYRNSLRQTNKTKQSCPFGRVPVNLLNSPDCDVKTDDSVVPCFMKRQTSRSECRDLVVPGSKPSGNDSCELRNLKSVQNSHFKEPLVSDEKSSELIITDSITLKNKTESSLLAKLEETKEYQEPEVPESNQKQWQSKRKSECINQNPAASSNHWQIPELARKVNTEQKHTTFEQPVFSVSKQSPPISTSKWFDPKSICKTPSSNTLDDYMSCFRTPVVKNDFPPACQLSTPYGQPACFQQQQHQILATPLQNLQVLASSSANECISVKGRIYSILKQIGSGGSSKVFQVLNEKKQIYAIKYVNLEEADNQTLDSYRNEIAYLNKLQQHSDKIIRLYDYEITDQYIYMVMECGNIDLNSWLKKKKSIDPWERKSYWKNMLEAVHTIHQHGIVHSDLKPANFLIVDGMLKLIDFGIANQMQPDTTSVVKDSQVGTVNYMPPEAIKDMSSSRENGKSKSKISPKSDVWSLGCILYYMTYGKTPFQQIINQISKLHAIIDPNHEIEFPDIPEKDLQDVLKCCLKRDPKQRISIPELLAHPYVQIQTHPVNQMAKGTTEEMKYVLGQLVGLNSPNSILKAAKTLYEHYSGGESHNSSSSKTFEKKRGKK

Measured: Kd
Note: in the data inactive means no Kd found up to 30 µM.

Sequence of Serine/threonine-protein kinase PAK 6 (Q9NQU5 whole entry): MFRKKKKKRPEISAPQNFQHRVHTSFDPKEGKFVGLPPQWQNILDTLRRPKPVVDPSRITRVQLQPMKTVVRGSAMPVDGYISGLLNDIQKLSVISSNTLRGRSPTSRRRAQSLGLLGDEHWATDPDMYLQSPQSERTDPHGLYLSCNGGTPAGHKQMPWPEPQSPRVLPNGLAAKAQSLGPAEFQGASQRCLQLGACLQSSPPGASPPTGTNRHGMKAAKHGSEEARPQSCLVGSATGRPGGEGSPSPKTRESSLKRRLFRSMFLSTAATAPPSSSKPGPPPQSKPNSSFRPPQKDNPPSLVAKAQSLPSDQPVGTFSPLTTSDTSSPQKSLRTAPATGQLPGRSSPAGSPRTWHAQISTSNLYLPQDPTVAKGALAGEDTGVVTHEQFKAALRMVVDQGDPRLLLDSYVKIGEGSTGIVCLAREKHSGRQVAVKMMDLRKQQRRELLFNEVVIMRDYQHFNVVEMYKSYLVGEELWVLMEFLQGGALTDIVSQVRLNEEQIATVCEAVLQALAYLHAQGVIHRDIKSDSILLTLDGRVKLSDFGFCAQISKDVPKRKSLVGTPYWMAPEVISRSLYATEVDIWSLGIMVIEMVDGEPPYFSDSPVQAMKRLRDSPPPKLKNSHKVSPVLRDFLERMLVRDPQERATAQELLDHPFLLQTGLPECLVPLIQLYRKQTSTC
Sequence of Dual specificity testis-specific protein kinase 2 (Q96S53 whole entry): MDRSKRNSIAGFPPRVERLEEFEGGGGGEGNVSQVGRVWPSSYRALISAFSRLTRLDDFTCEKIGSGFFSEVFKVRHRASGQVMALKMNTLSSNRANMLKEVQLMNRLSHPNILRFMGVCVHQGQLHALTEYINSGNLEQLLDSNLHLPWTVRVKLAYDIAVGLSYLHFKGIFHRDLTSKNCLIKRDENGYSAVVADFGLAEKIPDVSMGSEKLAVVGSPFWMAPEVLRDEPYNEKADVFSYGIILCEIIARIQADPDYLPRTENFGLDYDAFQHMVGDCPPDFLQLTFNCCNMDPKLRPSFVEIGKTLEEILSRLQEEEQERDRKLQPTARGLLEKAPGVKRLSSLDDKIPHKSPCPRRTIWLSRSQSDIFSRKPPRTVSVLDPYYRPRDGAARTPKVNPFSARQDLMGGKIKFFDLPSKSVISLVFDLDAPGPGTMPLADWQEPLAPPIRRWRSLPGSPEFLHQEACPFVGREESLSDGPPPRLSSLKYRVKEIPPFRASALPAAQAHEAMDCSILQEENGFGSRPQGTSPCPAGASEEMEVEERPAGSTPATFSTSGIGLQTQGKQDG

Cc1cc(Nc2nc(N[C@@H](C)c3ncc(F)cn3)ncc2Cl)n[nH]1 [AZD-1480]
inactive: [1] > 30 µM | [2] > 30 µM | [3] > 30 µM | [4] > 30 µM | [5] > 30 µM | [6] > 30 µM

C#Cc1cccc(Nc2ncnc3cc4c(cc23)OCCOCCOCCO4)c1 [ICOTINIB]
inactive: [1] > 30 µM | [2] > 30 µM | [3] > 30 µM | [4] > 30 µM | [5] > 30 µM | [6] > 30 µM

COc1cc(F)c(F)c(Nc2ccc(I)cc2F)c1NS(=O)(=O)C1(C[C@H](O)CO)CC1 [REFAMETINIB]
inactive: [1] > 30 µM | [3] > 30 µM | [5] > 30 µM

CNC(=O)c1cccc(-c2ccc3c(N4CCOC[C@@H]4C)nc(N4CCOC[C@@H]4C)nc3n2)c1 [VISTUSERTIB]
inactive: [1] > 30 µM | [2] > 30 µM | [7] > 30 µM | [4] > 30 µM | [5] > 30 µM | [6] > 30 µM

CC1(C)CNc2cc(NC(=O)c3cccnc3NCc3ccncc3)ccc21 [MOTESANIB]
inactive: [2] > 30 µM | [3] > 30 µM | [4] > 30 µM

NC(=O)c1ccc(N(C(N)=O)c2c(F)cccc2F)nc1-c1ccc(F)cc1F [VX-702]
inactive: [1] > 30 µM | [2] > 30 µM | [3] > 30 µM | [5] > 30 µM | [6] > 30 µM

Cc1cc(-c2cc(OC(=O)c3ccccc3)ccc2Cl)cc2nnc(Nc3ccc(OCCN4CCCC4)cc3)nc12 [TG100-801]
inactive: [2] > 30 µM | [7] > 30 µM | [3] > 30 µM | [4] > 30 µM | [5] > 30 µM | [6] > 30 µM

CN(C)C/C=C/C(=O)Nc1cc2c(Nc3ccc(F)c(Cl)c3)ncnc2cc1O[C@H]1CCOC1 [AFATINIB]
inactive: [3] > 30 µM | [4] > 30 µM | [6] > 30 µM

O=S(=O)(c1cccc2c(O)nccc12)N1CCCNCC1 [HYDROXYFASUDIL]
inactive: [7] > 30 µM | [3] > 30 µM | [4] > 30 µM | [6] > 30 µM

CCN1CCN(Cc2ccc(Nc3ncc(F)c(-c4cc(F)c5nc(C)n(C(C)C)c5c4)n3)nc2)CC1 [ABEMACICLIB]
inactive: [7] > 30 µM | [3] > 30 µM | [5] > 30 µM | [6] > 30 µM

Cn1cnc2c(F)c(Nc3ccc(Br)cc3Cl)c(C(=O)NOCCO)cc21 [SELUMETINIB]
inactive: [2] > 30 µM | [3] > 30 µM | [4] > 30 µM | [6] > 30 µM

Cc1c(Cn2c(C)nc3c(C(=O)O)cc(N4CCOCC4)cc32)cccc1C(F)(F)F [GSK-2636771]
inactive: [2] > 30 µM | [7] > 30 µM | [3] > 30 µM | [5] > 30 µM

COc1cc2ncnc(Nc3ccc(O)cc3)c2cc1OC [WHI-P131]
inactive: [1] > 30 µM | [2] > 30 µM | [7] > 30 µM | [4] > 30 µM | [6] > 30 µM

Cn1c(=O)c(F)c(Nc2ccc(I)cc2F)c2c(=O)n(C[C@@H](O)CO)cnc21 [TAK-733]
inactive: [1] > 30 µM | [2] > 30 µM | [7] > 30 µM | [4] > 30 µM | [5] > 30 µM | [6] > 30 µM

COc1cccc(Nc2ncnn3ccc(CN4CC[C@@H](N)[C@H](O)C4)c23)c1 [BMS-690514]
inactive: [2] > 30 µM | [7] > 30 µM | [3] > 30 µM | [5] > 30 µM

COCCN1CCN(Cc2ccc(-c3n[nH]c4c3C(=O)c3c(NC(=O)NN5CCOCC5)cccc3-4)cc2)CC1 [RGB-286638]
inactive: [1] > 30 µM | [3] > 30 µM | [4] > 30 µM | [5] > 30 µM

COc1cc(Nc2ncc(F)c(Nc3ccc4c(n3)N(COP(=O)(O)O)C(=O)C(C)(C)O4)n2)cc(OC)c1OC [FOSTAMATINIB]
inactive: [2] > 30 µM | [7] > 30 µM | [3] > 30 µM | [4] > 30 µM | [5] > 30 µM

COc1cccc2cc(-c3nc([C@H]4CC[C@H](C(=O)O)CC4)n4ncnc(N)c34)[nH]c12 [OSI-027]
inactive: [3] > 30 µM | [4] > 30 µM | [5] > 30 µM

COc1cc2c(Oc3ccc4[nH]c(C)cc4c3F)ncnc2cc1OCCCN1CCCC1 [CEDIRANIB]
inactive: [2] > 30 µM | [3] > 30 µM | [4] > 30 µM | [6] > 30 µM

C[C@]1(O)C[C@@H](c2nc(-c3ccc4ccc(-c5ccccc5)nc4c3)c3c(N)nccn32)C1 [LINSITINIB]
inactive: [1] > 30 µM | [2] > 30 µM | [7] > 30 µM | [4] > 30 µM | [5] > 30 µM | [6] > 30 µM

C[C@@]1(C(=O)Nc2ccc(F)nc2)CCCN1c1nc(Nc2cc(C3CC3)n[nH]2)c2cccn2n1 [BMS-754807]
inactive: [2] > 30 µM | [3] > 30 µM
